US12472182B2, “Compositions comprising regulatory t cells and methods of making and using the same” (Cellenkos, Inc., priority 2019, dated 2025)

Assays:
[1] = test system: interferon (IFN)-gamma released by SLE-PBMC; experiment: IFN-gamma release by pathogenic lupus cells; format: cell-based, human; details: control, non-specific inflammatory stimulus
Source text: FIG. 32 is a bar graph depicting the amount of interferon (IFN)-gamma released by pathogenic lupus cells in the presence or absence of combinations of (1) activated Treg cells; (2) ruxolitinib; and/or (3) camptothecin. Rux=ruxolitinib. SLE-PBMC=peripheral blood mononuclear cells derived from subjects with systemic lupus erythematosus. D6=Day 6.

[2] = test system: xenogeneic mouse graft versus host disease (GVHD) model; details: in vivo
Experimental: FIG. 33 depicts a schematic for treatment of a xenogeneic mouse graft versus host disease (GVHD) model with a ruxolitinib and activated Treg cells regimen. PBMC=peripheral blood mononuclear cells.
A xenogeneic mouse graft versus host disease (GVHD) model was treated with a ruxolitinib and activated CB Treg cells regimen, as depicted in FIG. 33. NSG mice underwent sublethal irradiation on day −1 followed by injection of 1×10^7 donor peripheral blood (PB) mononuclear cells (MNCs) on day 0. Oral ruxolitinib at 1 mg daily was fed continuously to the mice in the presence or absence of 1×10^7 CB Treg cells, tagged with CellTrace™ Violet dye (ThermoFisher), administered on days +4, +7, +11, +18. Mice were followed every other day for weight, GVHD score and survival. Serial blood draws were performed to analyze for cell compartment and cytokine assays.

| SMILES | IFNγ secretion from CB Treg cells [1] | CB Treg persistence [2] |
| --- | --- | --- |
| CC[C@@]1(O)C(=O)OCc2c1cc1n(c2=O)Cc2cc3ccccc3nc2-1 [Camptothecin] | does not increase IFNγ secretion | – |
| N#CC[C@H](C1CCCC1)n1cc(-c2ncnc3[nH]ccc23)cn1 [ruxolitinib] | – | improved CB Treg persistence |
